# In patent EP0025288A1, “Derivatives of monic acid, processes for their preparation, compositions containing them and their preparation” (priority 1979, dated 1981):
# Tests used:
# [1] = test system: E coli NCTC 10418; assay: MIC, human bacteria, serial dilution in nutrient agar; type: cell-based; settings: nutrient agar containing 5% 'chocolated' horse blood
# [2] = test system: M. suipneumoniae UCD 1; assay: MIC, anti-mycoplasmal, Friis broth solidified with 0.9% agarose; type: cell-based; settings: inoculum 10^3 to 10^5 C.F.U., 6 days incubation at 37°C
# [3] = test system: Bord bronchisptica BO9; assay: MIC, veterinary bacteria; type: cell-based; settings: veterinary bacteria (Table 2)
# [4] = test system: M. pneumoniae ATCC 15492; assay: MIC, anti-mycoplasmal, Friis broth solidified with 0.9% agarose; type: cell-based; settings: inoculum 10^3 to 10^5 C.F.U., 6 days incubation at 37°C
# [5] = test system: Ps aeruginosa 10662; assay: MIC, human bacteria, serial dilution in nutrient agar; type: cell-based; settings: nutrient agar containing 5% 'chocolated' horse blood
# [6] = test system: Bacillus subtilis 6633; assay: as above; type: cell-based; settings: nutrient agar containing 5% 'chocolated' horse blood
# [7] = test system: Corynebacterium pyogenes CY1; assay: MIC, veterinary bacteria; type: cell-based; settings: veterinary bacteria (Table 2)
# [8] = test system: M. suipneumoniae ATCC 25095; assay: MIC, anti-mycoplasmal, Friis broth solidified with 0.9% agarose; type: cell-based; settings: inoculum 10^3 to 10^5 C.F.U., 6 days incubation at 37°C
# [9] = test system: Haemophilus influenzae Wy21; assay: MIC, human bacteria, serial dilution in nutrient agar; type: cell-based; settings: nutrient agar containing 5% 'chocolated' horse blood
# [10] = test system: M. gallisepticum S6; assay: MIC, anti-mycoplasmal, Friis broth solidified with 0.9% agarose; type: cell-based; settings: inoculum 10^3 to 10^5 C.F.U., 6 days incubation at 37°C
# [11] = test system: Staph aureus Russell; assay: MIC, human bacteria, serial dilution in nutrient agar; type: cell-based; settings: nutrient agar containing 5% 'chocolated' horse blood
# [12] = test system: M. dispar NCTC 10125; assay: MIC, anti-mycoplasmal, Friis broth solidified with 0.9% agarose; type: cell-based; settings: inoculum 10^3 to 10^5 C.F.U., 6 days incubation at 37°C
# [13] = test system: M. suipneumoniae MS 16; assay: as above; type: cell-based; settings: inoculum 10^3 to 10^5 C.F.U., 6 days incubation at 37°C
# [14] = test system: Past Haemolytica PA5; assay: MIC, veterinary bacteria; type: cell-based; settings: veterinary bacteria (Table 2)
# [15] = test system: Staph aureus 152 (pen sens); assay: MIC, veterinary bacteria; type: cell-based; settings: veterinary bacteria (Table 2)
# [16] = test system: pig serum; assay: Serum binding by ultrafiltration; type: in vitro ADME; settings: compounds at 8 mcg/ml, microbiological assay (B. subtilis ATCC 6633)
# Description: Serum binding was assessed by ultrafiltration of procine serum containing compounds at 8 mcg/ml, and through an Amicon CF50A ultrafiltration cone. Separation of ultrafiltrate was achieved by centrifugation.
# [17] = test system: M. suipneumoniae HK(2); assay: MIC, anti-mycoplasmal, Friis broth solidified with 0.9% agarose; type: cell-based; settings: inoculum 10^3 to 10^5 C.F.U., 6 days incubation at 37°C
# [18] = test system: Strep agalactiae SPA1; assay: MIC, veterinary bacteria; type: cell-based; settings: veterinary bacteria (Table 2)
# [19] = test system: Staph aureus B4 (pen resis); assay: MIC, veterinary bacteria; type: cell-based; settings: veterinary bacteria (Table 2)
# [20] = test system: M. hyorhinis ATCC 25021; assay: MIC, anti-mycoplasmal, Friis broth solidified with 0.9% agarose; type: cell-based; settings: inoculum 10^3 to 10^5 C.F.U., 6 days incubation at 37°C
# [21] = test system: Corynebacterium zerosis 9755; assay: MIC, human bacteria, serial dilution in nutrient agar; type: cell-based; settings: nutrient agar containing 5% 'chocolated' horse blood
# [22] = test system: Strep pyogenes A 64/848; assay: as above; type: cell-based; settings: nutrient agar containing 5% 'chocolated' horse blood
# [23] = test system: M. hyorhinis ATCC 23234; assay: MIC, anti-mycoplasmal, Friis broth solidified with 0.9% agarose; type: cell-based; settings: inoculum 10^3 to 10^5 C.F.U., 6 days incubation at 37°C
# [24] = test system: Staph aureus W2827; assay: MIC, human bacteria, serial dilution in nutrient agar; type: cell-based; settings: nutrient agar containing 5% 'chocolated' horse blood
# [25] = test system: M. suipneumoniae Str. 11; assay: MIC, anti-mycoplasmal, Friis broth solidified with 0.9% agarose; type: cell-based; settings: inoculum 10^3 to 10^5 C.F.U., 6 days incubation at 37°C
# [26] = test system: M. suipneumoniae J2206/183b; assay: as above; type: cell-based; settings: inoculum 10^3 to 10^5 C.F.U., 6 days incubation at 37°C
# [27] = test system: K aerogenes A; assay: MIC, human bacteria, serial dilution in nutrient agar; type: cell-based; settings: nutrient agar containing 5% 'chocolated' horse blood
# [28] = test system: M. suipneumoniae NB12; assay: MIC, anti-mycoplasmal, Friis broth solidified with 0.9% agarose; type: cell-based; settings: inoculum 10^3 to 10^5 C.F.U., 6 days incubation at 37°C
# [29] = test system: Erysipelothrix rhusiopathiae NCTC 8163; assay: MIC, veterinary bacteria; type: cell-based; settings: veterinary bacteria (Table 2)
# [30] = test system: M. suipneumoniae LABER; assay: MIC, anti-mycoplasmal, Friis broth solidified with 0.9% agarose; type: cell-based; settings: inoculum 10^3 to 10^5 C.F.U., 6 days incubation at 37°C
# [31] = test system: Strep suis (group D) SPS11; assay: MIC, veterinary bacteria; type: cell-based; settings: veterinary bacteria (Table 2)
# [32] = test system: M. bovigenitalium ATCC 14173; assay: MIC, anti-mycoplasmal, Friis broth solidified with 0.9% agarose; type: cell-based; settings: inoculum 10^3 to 10^5 C.F.U., 6 days incubation at 37°C
# [33] = test system: Strep dysgalaciae SPD1; assay: MIC, veterinary bacteria; type: cell-based; settings: veterinary bacteria (Table 2)
# [34] = test system: E coli ESS; assay: MIC, human bacteria, serial dilution in nutrient agar; type: cell-based; settings: nutrient agar containing 5% 'chocolated' horse blood
# [35] = test system: M. suipneumoniae JF 435; assay: MIC, anti-mycoplasmal, Friis broth solidified with 0.9% agarose; type: cell-based; settings: inoculum 10^3 to 10^5 C.F.U., 6 days incubation at 37°C
# [36] = test system: E coli NCTC 10418; assay: MIC, veterinary bacteria; type: cell-based; settings: veterinary bacteria (Table 2)
# [37] = test system: Strep pyogenes C 2761; assay: MIC, human bacteria, serial dilution in nutrient agar; type: cell-based; settings: nutrient agar containing 5% 'chocolated' horse blood
# [38] = test system: M. hyosynoviae ATCC 25591; assay: MIC, anti-mycoplasmal, Friis broth solidified with 0.9% agarose; type: cell-based; settings: inoculum 10^3 to 10^5 C.F.U., 6 days incubation at 37°C
# [39] = test system: Past multocida PA1; assay: MIC, veterinary bacteria; type: cell-based; settings: veterinary bacteria (Table 2)
# [40] = test system: Strep uberis SPU1; assay: MIC, veterinary bacteria; type: cell-based; settings: veterinary bacteria (Table 2)
# [41] = test system: Sercina lutea 8340; assay: MIC, human bacteria, serial dilution in nutrient agar; type: cell-based; settings: nutrient agar containing 5% 'chocolated' horse blood
# [42] = test system: S dublin S7; assay: MIC, veterinary bacteria; type: cell-based; settings: veterinary bacteria (Table 2)
# [43] = test system: M. bovis NCTC 10131; assay: microbe, parasite or virus in culture; type: cell-based; settings: M. bovis NCTC 10131; inoculum 10^3 to 10^5 C.F.U., 6 days incubation at 37°C
# [44] = test system: M. suipneumoniae PW/C/210; assay: MIC, anti-mycoplasmal, Friis broth solidified with 0.9% agarose; type: cell-based; settings: inoculum 10^3 to 10^5 C.F.U., 6 days incubation at 37°C
# [45] = test system: Staph aureus Oxford; assay: MIC, human bacteria, serial dilution in nutrient agar; type: cell-based; settings: nutrient agar containing 5% 'chocolated' horse blood
# [46] = test system: M. suipneumoniae TAM 6N; assay: MIC, anti-mycoplasmal, Friis broth solidified with 0.9% agarose; type: cell-based; settings: inoculum 10^3 to 10^5 C.F.U., 6 days incubation at 37°C
# [47] = test system: Pasteurella multocida 1633; assay: MIC, human bacteria, serial dilution in nutrient agar; type: cell-based; settings: nutrient agar containing 5% 'chocolated' horse blood
# [48] = test system: Neisseria catarrhalis 1502; assay: as above; type: cell-based; settings: Neisseria catarrhalis 1502 (footnote a); nutrient agar containing 5% 'chocolated' horse blood
# [49] = test system: Staph aureus Oxford; assay: MIC, veterinary bacteria; type: cell-based; settings: veterinary bacteria (Table 2)
# [50] = test system: S typhimurium S18; assay: MIC, veterinary bacteria; type: cell-based; settings: veterinary bacteria (Table 2)
# [51] = test system: P mirabilis 889; assay: MIC, human bacteria, serial dilution in nutrient agar; type: cell-based; settings: nutrient agar containing 5% 'chocolated' horse blood
# [52] = test system: E coli E1; assay: MIC, veterinary bacteria; type: cell-based; settings: veterinary bacteria (Table 2)
# [53] = test system: Strep faecalis I; assay: MIC, human bacteria, serial dilution in nutrient agar; type: cell-based; settings: nutrient agar containing 5% 'chocolated' horse blood
# [54] = test system: Past multocida PA2; assay: MIC, veterinary bacteria; type: cell-based; settings: veterinary bacteria (Table 2)
# [55] = test system: M. suipneumoniae NCTC 10110; assay: MIC, anti-mycoplasmal, Friis broth solidified with 0.9% agarose; type: cell-based; settings: inoculum 10^3 to 10^5 C.F.U., 6 days incubation at 37°C
# [56] = test system: Strep pyogenes B 2788; assay: MIC, human bacteria, serial dilution in nutrient agar; type: cell-based; settings: nutrient agar containing 5% 'chocolated' horse blood
# [57] = test system: Bord bronchiseptica BO8; assay: MIC, veterinary bacteria; type: cell-based; settings: veterinary bacteria (Table 2)
substance,measurement,setting,value
C^yclopentan-2-onyl monate A [Example 6],MIC,[1],>100 µm/ml
same,in vitro MIC,[2],10 µg/mL
same,MIC,[3],20 µg/mL
same,in vitro MIC,[4],10 µg/mL
same,MIC,[5],>100 µm/ml
same,MIC,[6],2.5 µm/ml
same,MIC,[7],>80 µg/mL
same,in vitro MIC,[8],5.0 µg/mL
same,MIC,[9],0.5 µm/ml
same,in vitro MIC,[10],>10 µg/mL
same,MIC,[11],5.0 µm/ml
same,in vitro MIC,[12],0.5 µg/mL
same,in vitro MIC,[13],2.5 µg/mL
same,MIC,[14],5 µg/mL
same,MIC,[15],2.5 µg/mL
same,% bound to pig serum,[16],35.6%
same,in vitro MIC,[17],10 µg/mL
same,MIC,[18],2.5 µg/mL
same,MIC,[19],2.5 µg/mL
same,in vitro MIC,[20],2.5 µg/mL
same,MIC,[21],>100 µm/ml
same,MIC,[22],2.5 µm/ml
same,in vitro MIC,[23],2.5 µg/mL
same,MIC,[24],5.0 µm/ml
same,in vitro MIC,[25],2.5 µg/mL
same,in vitro MIC,[26],10 µg/mL
same,MIC,[27],>100 µm/ml
same,in vitro MIC,[28],2.5 µg/mL
same,MIC,[29],>80 µg/mL
same,in vitro MIC,[30],2.5 µg/mL
same,MIC,[31],20 µg/mL
same,in vitro MIC,[32],0.25 µg/mL
same,MIC,[33],1.25 µg/mL
same,MIC,[34],2.5 µm/ml
same,in vitro MIC,[35],10 µg/mL
same,MIC,[36],>80 µg/mL
same,MIC,[37],5.0 µm/ml
same,in vitro MIC,[38],2.5 µg/mL
same,MIC,[39],.625 µg/mL
same,MIC,[40],1.25 µg/mL
same,MIC,[41],>100 µm/ml
same,MIC,[42],>80 µg/mL
same,in vitro MIC,[43],0.25 µg/mL
same,in vitro MIC,[44],2.5 µg/mL
same,MIC,[45],2.5 µm/ml
same,in vitro MIC,[46],5.0 µg/mL
same,MIC,[47],1.0 µm/ml
same,MIC,[48],^a1.0 µm/ml
same,MIC,[49],2.5 µg/mL
same,MIC,[50],>80 µg/mL
same,MIC,[51],100 µm/ml
same,MIC,[52],>80 µg/mL
same,MIC,[53],>100 µm/ml
same,MIC,[54],.312 µg/mL
same,in vitro MIC,[55],10 µg/mL
same,MIC,[56],5.0 µm/ml
same,MIC,[57],80 µg/mL
